In the supplement of paper PMC9663587:

Key:
LEE011/Ribociclib [1] = compound: T1, CN(C)C(=O)c1cc2cnc(Nc3ccc(N4CCNCC4)cn3)nc2n1C1CCCC1 [LEE011/Ribociclib]; assay: increase in dead-cell fraction, 72 h; higher = more death;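 also: breast cancer cell lines in 384-well plates, stained with Hoechst plus LIVE/DEAD far red dye and imaged, cells above an LDR intensity threshold counted dead, Hoechst-negative corpses included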
Flavopiridol [2] = compound: T2, CN1CC[C@H](c2c(O)cc(O)c3c(=O)cc(-c4ccccc4Cl)oc23)[C@H](O)C1 [Flavopiridol]; assay: as above
[3] = compound: CC(=O)c1c(C)c2cnc(Nc3ccc(N4CCNCC4)cn3)nc2n(C2CCCC2)c1=O; assay: as above
[4] = compound: CCN1CCN(Cc2ccc(Nc3ncc(F)c(-c4cc(F)c5nc(C)n(C(C)C)c5c4)n3)nc2)CC1; assay: as above
LEE011/Ribociclib [5] = compound: T1, LEE011/Ribociclib; assay: GR value, 72 h; higher = faster growth (1 = untreated, <0 = killing);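 also: breast cancer and non-malignant breast epithelial lines, nine half-log doses, viable cells counted by Hoechst and LIVE/DEAD dye imaging versus time-zero plates and DMSO controls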
Flavopiridol [6] = compound: T2, Flavopiridol; assay: as above
Neratinib/HKI272 = compound: CCOc1cc2ncc(C#N)c(Nc3ccc(OCc4ccccn4)c(Cl)c3)c2cc1NC(=O)/C=C/CN(C)C [Neratinib/HKI272]; assay: as above
[7] = compound: CCc1cnn2c(NCc3ccc[n+]([O-])c3)cc(N3CCCC[C@H]3CCO)nc12; assay: as above
BSJ-03-123 = compound: CC(=O)c1c(C)c2cnc(Nc3ccc(N4CCN(CCOCCOCCOCCNC(=O)COc5cccc6c5C(=O)N(C5CCC(=O)NC5=O)C6=O)CC4)cn3)nc2n(C2CCCC2)c1=O [BSJ-03-123]; assay: as above
THZ1 = compound: CN(C)C/C=C/C(=O)Nc1ccc(C(=O)Nc2cccc(Nc3ncc(Cl)c(-c4c[nH]c5ccccc45)n3)c2)cc1 [THZ1]; assay: as above
[8] = compound: CC(=O)c1c(C)c2cnc(Nc3ccc(N4CCNCC4)cn3)nc2n(C2CCCC2)c1=O; assay: as above
[9] = compound: CCN1CCN(Cc2ccc(Nc3ncc(F)c(-c4cc(F)c5nc(C)n(C(C)C)c5c4)n3)nc2)CC1; assay: as above

Q: Which “increase in dead-cell fraction” value (LEE011/Ribociclib [1]; 0.001 µM) does the source give for CAMA1 here?
A: -0.0064

Q: And the “increase in dead-cell fraction” value (LEE011/Ribociclib [1]; 0.003162 µM)?
A: -0.0056

Q: And the “increase in dead-cell fraction” value (LEE011/Ribociclib [1]; 0.01 µM)?
A: -0.0011

Q: And the “increase in dead-cell fraction” value (LEE011/Ribociclib [1]; 0.03162 µM)?
A: -0.0009

Q: And the “increase in dead-cell fraction” value (LEE011/Ribociclib [1]; 0.1 µM)?
A: 0.006

Q: And the “increase in dead-cell fraction” value (LEE011/Ribociclib [1]; 0.3162 µM)?
A: 0.0058

Q: What about the “increase in dead-cell fraction” value (LEE011/Ribociclib [1]; 1 µM) of the same cell line?
A: 0.011

Q: And the “increase in dead-cell fraction” value (LEE011/Ribociclib [1]; 3.162 µM)?
A: 0.0045

Q: What about the “increase in dead-cell fraction” value (LEE011/Ribociclib [1]; 10 µM) of the same cell line?
A: 0.0049

Q: And the “increase in dead-cell fraction” value (Flavopiridol [2]; 0.0001 µM)?
A: 0.0013

Q: What about the “increase in dead-cell fraction” value (Flavopiridol [2]; 0.0003162 µM) of the same cell line?
A: 0.0009

Q: And the “increase in dead-cell fraction” value (Flavopiridol [2]; 0.001 µM)?
A: 0.0022

Q: And the “increase in dead-cell fraction” value (Flavopiridol [2]; 0.003162 µM)?
A: 0.0011

Q: What about the “increase in dead-cell fraction” value (Flavopiridol [2]; 0.01 µM) of the same cell line?
A: 0.0016

Q: And the “increase in dead-cell fraction” value (Flavopiridol [2]; 0.03162 µM)?
A: 0.0052

Q: What about the “increase in dead-cell fraction” value (Flavopiridol [2]; 0.1 µM) of the same cell line?
A: 0.0067

Q: And the “increase in dead-cell fraction” value (Flavopiridol [2]; 0.3162 µM)?
A: 0.0207

Q: What about the “increase in dead-cell fraction” value (Flavopiridol [2]; 1 µM) of the same cell line?
A: 0.107

Q: And the “increase in dead-cell fraction” value ([3]; 0.0003162 µM)?
A: -0.0052

Q: And the “increase in dead-cell fraction” value ([3]; 0.001 µM)?
A: 0.0045

Q: What about the “increase in dead-cell fraction” value ([3]; 0.003162 µM) of the same cell line?
A: -0.006

Q: And the “increase in dead-cell fraction” value ([3]; 0.01 µM)?
A: -0.0044

Q: What about the “increase in dead-cell fraction” value ([3]; 0.03162 µM) of the same cell line?
A: -0.0065

Q: And the “increase in dead-cell fraction” value ([3]; 0.1 µM)?
A: -0.0028

Q: And the “increase in dead-cell fraction” value ([3]; 0.3162 µM)?
A: 0.0013

Q: What about the “increase in dead-cell fraction” value ([3]; 1 µM) of the same cell line?
A: 0

Q: What about the “increase in dead-cell fraction” value ([3]; 3.162 µM) of the same cell line?
A: -0.0024

Q: What about the “increase in dead-cell fraction” value ([4]; 0.001 µM) of the same cell line?
A: -0.0054

Q: And the “increase in dead-cell fraction” value ([4]; 0.003162 µM)?
A: -0.0135

Q: What about the “increase in dead-cell fraction” value ([4]; 0.01 µM) of the same cell line?
A: -0.0075

Q: And the “increase in dead-cell fraction” value ([4]; 0.03162 µM)?
A: -0.0084

Q: What about the “increase in dead-cell fraction” value ([4]; 0.1 µM) of the same cell line?
A: 0.0035

Q: What about the “increase in dead-cell fraction” value ([4]; 0.3162 µM) of the same cell line?
A: -0.0078

Q: What about the “increase in dead-cell fraction” value ([4]; 1 µM) of the same cell line?
A: -0.0025

Q: What about the “increase in dead-cell fraction” value ([4]; 3.162 µM) of the same cell line?
A: -0.0084

Q: What about the “increase in dead-cell fraction” value ([4]; 10 µM) of the same cell line?
A: 0.0143

Q: What about the GR value (LEE011/Ribociclib [5]; 0.001 µM) of the same cell line?
A: 0.721 GR

Q: And the GR value (LEE011/Ribociclib [5]; 0.003162 µM)?
A: 0.549 GR

Q: And the GR value (LEE011/Ribociclib [5]; 0.01 µM)?
A: 0.365 GR

Q: And the GR value (LEE011/Ribociclib [5]; 0.03162 µM)?
A: 0.492 GR

Q: What about the GR value (LEE011/Ribociclib [5]; 0.1 µM) of the same cell line?
A: 0.285 GR

Q: What about the GR value (LEE011/Ribociclib [5]; 0.3162 µM) of the same cell line?
A: 0.207 GR

Q: What about the GR value (LEE011/Ribociclib [5]; 1 µM) of the same cell line?
A: 0.21 GR

Q: What about the GR value (LEE011/Ribociclib [5]; 3.162 µM) of the same cell line?
A: 0.141 GR

Q: What about the GR value (LEE011/Ribociclib [5]; 10 µM) of the same cell line?
A: 0.159 GR

Q: What about the GR value (Flavopiridol [6]; 0.0001 µM) of the same cell line?
A: 1.25 GR

Q: And the GR value (Flavopiridol [6]; 0.0003162 µM)?
A: 1.12 GR

Q: What about the GR value (Flavopiridol [6]; 0.001 µM) of the same cell line?
A: 0.73 GR

Q: And the GR value (Flavopiridol [6]; 0.003162 µM)?
A: 1.05 GR

Q: And the GR value (Flavopiridol [6]; 0.01 µM)?
A: 0.907 GR

Q: What about the GR value (Flavopiridol [6]; 0.03162 µM) of the same cell line?
A: 0.862 GR

Q: What about the GR value (Flavopiridol [6]; 0.1 µM) of the same cell line?
A: 0.807 GR

Q: What about the GR value (Flavopiridol [6]; 0.3162 µM) of the same cell line?
A: 0.194 GR

Q: And the GR value (Flavopiridol [6]; 1 µM)?
A: -0.111 GR

Q: What about the GR value (Neratinib/HKI272; 0.0003162 µM) of the same cell line?
A: 1.08 GR

Q: And the GR value (Neratinib/HKI272; 0.001 µM)?
A: 1.01 GR

Q: What about the GR value (Neratinib/HKI272; 0.003162 µM) of the same cell line?
A: 1.01 GR

Q: What about the GR value (Neratinib/HKI272; 0.01 µM) of the same cell line?
A: 0.989 GR

Q: What about the GR value (Neratinib/HKI272; 0.03162 µM) of the same cell line?
A: 1 GR

Q: What about the GR value (Neratinib/HKI272; 0.1 µM) of the same cell line?
A: 0.993 GR

Q: And the GR value (Neratinib/HKI272; 0.3162 µM)?
A: 0.949 GR

Q: What about the GR value (Neratinib/HKI272; 1 µM) of the same cell line?
A: 0.837 GR

Q: What about the GR value (Neratinib/HKI272; 3.162 µM) of the same cell line?
A: 0.455 GR

Q: What about the GR value ([7]; 0.0001 µM) of the same cell line?
A: 0.942 GR

Q: What about the GR value ([7]; 0.0003162 µM) of the same cell line?
A: 1.05 GR

Q: And the GR value ([7]; 0.001 µM)?
A: 1.01 GR

Q: What about the GR value ([7]; 0.003162 µM) of the same cell line?
A: 1 GR

Q: What about the GR value ([7]; 0.01 µM) of the same cell line?
A: 0.725 GR

Q: What about the GR value ([7]; 0.03162 µM) of the same cell line?
A: -0.0614 GR

Q: And the GR value ([7]; 0.1 µM)?
A: -0.386 GR

Q: And the GR value ([7]; 0.3162 µM)?
A: -0.417 GR

Q: What about the GR value ([7]; 1 µM) of the same cell line?
A: -0.494 GR

Q: What about the GR value (BSJ-03-123; 0.001 µM) of the same cell line?
A: 0.778 GR

Q: And the GR value (BSJ-03-123; 0.003162 µM)?
A: 0.65 GR

Q: What about the GR value (BSJ-03-123; 0.01 µM) of the same cell line?
A: 0.463 GR

Q: And the GR value (BSJ-03-123; 0.03162 µM)?
A: 0.391 GR

Q: What about the GR value (BSJ-03-123; 0.1 µM) of the same cell line?
A: 0.264 GR

Q: And the GR value (BSJ-03-123; 0.3162 µM)?
A: 0.238 GR

Q: And the GR value (BSJ-03-123; 1 µM)?
A: 0.219 GR

Q: And the GR value (BSJ-03-123; 3.162 µM)?
A: 0.219 GR

Q: What about the GR value (BSJ-03-123; 10 µM) of the same cell line?
A: 0.0155 GR

Q: And the GR value (THZ1; 0.0001 µM)?
A: 0.892 GR

Q: And the GR value (THZ1; 0.0003162 µM)?
A: 0.979 GR

Q: What about the GR value (THZ1; 0.001 µM) of the same cell line?
A: 0.758 GR

Q: What about the GR value (THZ1; 0.003162 µM) of the same cell line?
A: 0.755 GR

Q: And the GR value (THZ1; 0.01 µM)?
A: 0.615 GR

Q: What about the GR value (THZ1; 0.03162 µM) of the same cell line?
A: 0.549 GR

Q: What about the GR value (THZ1; 0.1 µM) of the same cell line?
A: 0.208 GR

Q: What about the GR value (THZ1; 0.3162 µM) of the same cell line?
A: -0.0416 GR

Q: And the GR value (THZ1; 1 µM)?
A: -0.467 GR

Q: And the GR value ([8]; 0.0003162 µM)?
A: 0.969 GR

Q: What about the GR value ([8]; 0.001 µM) of the same cell line?
A: 0.973 GR

Q: And the GR value ([8]; 0.003162 µM)?
A: 0.94 GR

Q: And the GR value ([8]; 0.01 µM)?
A: 0.887 GR

Q: And the GR value ([8]; 0.03162 µM)?
A: 0.678 GR

Q: What about the GR value ([8]; 0.1 µM) of the same cell line?
A: 0.442 GR

Q: What about the GR value ([8]; 0.3162 µM) of the same cell line?
A: 0.303 GR

Q: What about the GR value ([8]; 1 µM) of the same cell line?
A: 0.3 GR

Q: And the GR value ([8]; 3.162 µM)?
A: 0.288 GR

Q: What about the GR value ([9]; 0.001 µM) of the same cell line?
A: 0.866 GR

Q: What about the GR value ([9]; 0.003162 µM) of the same cell line?
A: 0.777 GR

Q: What about the GR value ([9]; 0.01 µM) of the same cell line?
A: 0.44 GR

Q: What about the GR value ([9]; 0.03162 µM) of the same cell line?
A: 0.272 GR

Q: And the GR value ([9]; 0.1 µM)?
A: 0.257 GR

Q: What about the GR value ([9]; 0.3162 µM) of the same cell line?
A: 0.278 GR

Q: What about the GR value ([9]; 1 µM) of the same cell line?
A: 0.285 GR

Q: What about the GR value ([9]; 3.162 µM) of the same cell line?
A: 0.286 GR

Q: And the GR value ([9]; 10 µM)?
A: 0.223 GR
